Source: ChEMBL document CHEMBL3997786, “Development of Dihydroxyphenyl Sulfonylisoindoline Derivatives as Liver-Targeting Pyruvate Dehydrogenase Kinase Inhibitors” (J Med Chem, 2017)

Columns and labels:
[1] = biological target: T1, [Pyruvate dehydrogenase (acetyl-transferring)] kinase isozyme 2, mitochondrial (Homo sapiens, UniProt Q15119); test: Inhibition of N-terminal His6-SUMO tagged recombinant human PDK2 using [32P]-gamma-ATP assessed as decrease in incorporation of radioactivity into E1 protein incubated for 2 mins
[2] = biological target: T1, [Pyruvate dehydrogenase (acetyl-transferring)] kinase isozyme 2, mitochondrial; test: Binding affinity to N-terminal His6-SUMO tagged recombinant human PDK2 by isothermal titration calorimetry
Plasma [3] = test: Terminal half life in CD1 mouse plasma at 70 mg/kg, ip by LC-MS/MS analysis; format: ADME, organism-based; conditions: in vivo
Plasma [4] = test: Cmax in CD1 mouse plasma at 70 mg/kg, ip by LC-MS/MS analysis; format: ADME, organism-based; design: dose 70 mg/kg, route intraperitoneal; conditions: in vivo
Plasma [5] = test: Tmax in CD1 mouse plasma at 70 mg/kg, ip by LC-MS/MS analysis; format: ADME, organism-based; conditions: in vivo
Plasma [6] = test: AUClast in CD1 mouse plasma at 70 mg/kg, ip by LC-MS/MS analysis; format: ADME, organism-based; design: dose 70 mg/kg, route intraperitoneal, time 0 - last; conditions: in vivo
Plasma [7] = test: Apparent volume of distribution during terminal phase in CD1 mouse plasma at 70 mg/kg, ip by LC-MS/MS analysis; format: ADME, organism-based; conditions: in vivo
[8] = Apparent clearance in CD1 mouse plasma at 70 mg/kg, ip by LC-MS/MS analysis; format: ADME, organism-based
Liver [9] = test: Terminal half life in CD1 mouse liver at 70 mg/kg, ip by LC-MS/MS analysis; format: ADME, organism-based; conditions: in vivo
Liver [10] = test: Cmax in CD1 mouse liver at 70 mg/kg, ip by LC-MS/MS analysis; format: ADME, organism-based; design: dose 70 mg/kg, route intraperitoneal; conditions: in vivo
Liver [11] = test: Tmax in CD1 mouse liver at 70 mg/kg, ip by LC-MS/MS analysis; format: ADME, organism-based; conditions: in vivo
Liver [12] = test: AUClast in CD1 mouse liver at 70 mg/kg, ip by LC-MS/MS analysis; format: ADME, organism-based; conditions: in vivo
Liver [13] = test: Apparent volume of distribution during terminal phase in CD1 mouse liver at 70 mg/kg, ip by LC-MS/MS analysis; format: ADME, organism-based; conditions: in vivo
Liver [14] = test: Apparent clearance in CD1 mouse liver at 70 mg/kg, ip by LC-MS/MS analysis; format: ADME, organism-based; conditions: in vivo
[15] = Terminal half life in CD1 mouse muscle at 70 mg/kg, ip by LC-MS/MS analysis; format: ADME, organism-based, Muscle tissue; conditions: read-out: beta t1/2
[16] = Cmax in CD1 mouse muscle at 70 mg/kg, ip by LC-MS/MS analysis; format: ADME, organism-based, Muscle tissue; design: dose 70 mg/kg, route intraperitoneal
[17] = Tmax in CD1 mouse muscle at 70 mg/kg, ip by LC-MS/MS analysis; format: ADME, organism-based, Muscle tissue
[18] = AUClast in CD1 mouse muscle at 70 mg/kg, ip by LC-MS/MS analysis; format: ADME, organism-based, Muscle tissue; conditions: in vivo
[19] = Apparent volume of distribution during terminal phase in CD1 mouse muscle at 70 mg/kg, ip by LC-MS/MS analysis; format: ADME, organism-based, Muscle tissue; conditions: in vivo
[20] = Apparent clearance in CD1 mouse muscle at 70 mg/kg, ip by LC-MS/MS analysis; format: ADME, organism-based, Muscle tissue; conditions: in vivo

Compound `NC(=O)C[C@H](N)C(=O)N1CC[C@@H](Nc2ccc3c(c2)CN(S(=O)(=O)c2ccc(O)cc2O)C3)C1` has an IC50 [1] of 221 nM.

Work on `NCCCC[C@H](N)C(=O)N1CCC(Nc2ccc3c(c2)CN(S(=O)(=O)c2ccc(O)cc2O)C3)CC1` yielded an IC50 [1] of 580 nM.

Compound `NC(=O)C[C@H](N)C(=O)N1CCN(c2ccc3c(c2)CN(S(=O)(=O)c2ccc(O)cc2O)C3)CC1` has an IC50 [1] of 767 nM.

Compound `NC(=O)CC[C@H](N)C(=O)N1CCC(Nc2ccc3c(c2)CN(S(=O)(=O)c2ccc(O)cc2O)C3)CC1` has an IC50 [1] of 72 nM.

In the case of `O=S(=O)(c1ccc(O)cc1O)N1Cc2ccc(O)cc2C1`, the IC50 [1] is reported as 570 nM.

With `NC(=O)C[C@H](N)C(=O)NCCCNc1ccc2c(c1)CN(S(=O)(=O)c1ccc(O)cc1O)C2` the IC50 [1] was 67 nM.

Work on `O=S(=O)(c1ccc(O)cc1O)N1Cc2ccc(N3CCNCC3)cc2C1` yielded an IC50 [1] of 1350 nM.

`O=C(O)CCCCC(=O)N1CCC(Nc2ccc3c(c2)CN(S(=O)(=O)c2ccc(O)cc2O)C3)CC1` gave an IC50 [1] of 1610 nM.

For `Nc1ccc2c(c1)CN(S(=O)(=O)c1ccc(O)cc1O)C2`, the IC50 [1] was 1180 nM.

With `O=S(=O)(c1ccc(O)cc1O)N1Cc2ccc(NC3CCCCC3)cc2C1` the IC50 [1] was 1200 nM.

With `O=S(=O)(c1ccc(O)cc1O)N1Cc2cc(O)cc(O)c2C1` the IC50 [1] was 456 nM, the Kd [2] was 156 nM and the “beta t1/2” value (Plasma [3]) was 5.65 h. It also gave a Cmax (Plasma [4]) of 29000 ng/mL, a Tmax (Plasma [5]) of 0.167 h and an AUClast (Plasma [6]) of 1494106 ng·min/mL. For the same compound, the Vz/F (Plasma [7]) was 679 mL, the CL/F [8] was 1.39 mL/min and the “beta t1/2” value (Liver [9]) was 1.67 h. It also gave a Cmax (Liver [10]) of 5707 ng/g, a Tmax (Liver [11]) of 0.167 h and an AUClast (Liver [12]) of 245088 ng·min/g. The Vz/F (Liver [13]) was 1174 g, the CL/F (Liver [14]) was 8.13 g/min and the half-life [15] was 8.57 h. For the same compound, the Cmax [16] was 17400 ng/g, the Tmax [17] was 0.5 h and the AUClast [18] was 885986 ng·min/g. For the same compound, the Vz/F [19] was 1720 g and the CL/F [20] was 2.32 g/min.

Work on `NC(=O)C[C@H](N)C(=O)NCCNc1ccc2c(c1)CN(S(=O)(=O)c1ccc(O)cc1O)C2` yielded an IC50 [1] of 357 nM.

Compound `NC(=O)C[C@H](N)C(=O)N1CC[C@H](Nc2ccc3c(c2)CN(S(=O)(=O)c2ccc(O)cc2O)C3)C1` has an IC50 [1] of 156 nM.
